One block for each compound: values may come before it.
Assays:
[1] = target: T1, Tyrosine-protein phosphatase non-receptor type 1 (Homo sapiens) (UniProt P18031); test: Inhibition of recombinant human PTP1B expressed in Escherichia coli BL21 at 10 uM using […] as substrate […] for 5 mins followed by substrate addition measured after 10 mins relative to control
T1 sequence (whole entry): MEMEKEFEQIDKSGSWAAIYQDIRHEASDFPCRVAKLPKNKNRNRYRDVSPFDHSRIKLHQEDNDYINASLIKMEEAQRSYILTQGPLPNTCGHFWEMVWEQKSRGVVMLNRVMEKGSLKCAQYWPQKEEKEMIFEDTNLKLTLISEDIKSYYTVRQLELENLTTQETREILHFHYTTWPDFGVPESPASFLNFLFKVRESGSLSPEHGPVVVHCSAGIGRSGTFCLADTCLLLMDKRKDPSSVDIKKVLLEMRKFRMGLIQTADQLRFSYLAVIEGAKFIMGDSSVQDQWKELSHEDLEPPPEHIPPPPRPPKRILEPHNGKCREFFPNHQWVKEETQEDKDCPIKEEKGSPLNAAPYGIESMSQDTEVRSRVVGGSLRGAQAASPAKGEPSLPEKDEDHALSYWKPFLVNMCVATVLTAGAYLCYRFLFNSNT

RAW264.7 [2] = test: Anti-inflammatory activity in mouse RAW264.7 cells assessed as inhibition of LPS-induced NO production pretreated with compounds followed by LPS stimulation incubated for 24 hrs by Griess assay; assay type: functional, cell-based
RAW264.7 [3] = test: Growth inhibition of mouse RAW264.7 cells relative to control; assay type: cell-based
[4] = target: Xanthine dehydrogenase/oxidase (Homo sapiens, UniProt P47989); test: Inhibition of xanthine oxidase (unknown origin) at 10 uM using xanthine as substrate incubated for 15 mins relative to control; settings: 0.25 h
Sequence of Xanthine dehydrogenase/oxidase (P47989 whole entry): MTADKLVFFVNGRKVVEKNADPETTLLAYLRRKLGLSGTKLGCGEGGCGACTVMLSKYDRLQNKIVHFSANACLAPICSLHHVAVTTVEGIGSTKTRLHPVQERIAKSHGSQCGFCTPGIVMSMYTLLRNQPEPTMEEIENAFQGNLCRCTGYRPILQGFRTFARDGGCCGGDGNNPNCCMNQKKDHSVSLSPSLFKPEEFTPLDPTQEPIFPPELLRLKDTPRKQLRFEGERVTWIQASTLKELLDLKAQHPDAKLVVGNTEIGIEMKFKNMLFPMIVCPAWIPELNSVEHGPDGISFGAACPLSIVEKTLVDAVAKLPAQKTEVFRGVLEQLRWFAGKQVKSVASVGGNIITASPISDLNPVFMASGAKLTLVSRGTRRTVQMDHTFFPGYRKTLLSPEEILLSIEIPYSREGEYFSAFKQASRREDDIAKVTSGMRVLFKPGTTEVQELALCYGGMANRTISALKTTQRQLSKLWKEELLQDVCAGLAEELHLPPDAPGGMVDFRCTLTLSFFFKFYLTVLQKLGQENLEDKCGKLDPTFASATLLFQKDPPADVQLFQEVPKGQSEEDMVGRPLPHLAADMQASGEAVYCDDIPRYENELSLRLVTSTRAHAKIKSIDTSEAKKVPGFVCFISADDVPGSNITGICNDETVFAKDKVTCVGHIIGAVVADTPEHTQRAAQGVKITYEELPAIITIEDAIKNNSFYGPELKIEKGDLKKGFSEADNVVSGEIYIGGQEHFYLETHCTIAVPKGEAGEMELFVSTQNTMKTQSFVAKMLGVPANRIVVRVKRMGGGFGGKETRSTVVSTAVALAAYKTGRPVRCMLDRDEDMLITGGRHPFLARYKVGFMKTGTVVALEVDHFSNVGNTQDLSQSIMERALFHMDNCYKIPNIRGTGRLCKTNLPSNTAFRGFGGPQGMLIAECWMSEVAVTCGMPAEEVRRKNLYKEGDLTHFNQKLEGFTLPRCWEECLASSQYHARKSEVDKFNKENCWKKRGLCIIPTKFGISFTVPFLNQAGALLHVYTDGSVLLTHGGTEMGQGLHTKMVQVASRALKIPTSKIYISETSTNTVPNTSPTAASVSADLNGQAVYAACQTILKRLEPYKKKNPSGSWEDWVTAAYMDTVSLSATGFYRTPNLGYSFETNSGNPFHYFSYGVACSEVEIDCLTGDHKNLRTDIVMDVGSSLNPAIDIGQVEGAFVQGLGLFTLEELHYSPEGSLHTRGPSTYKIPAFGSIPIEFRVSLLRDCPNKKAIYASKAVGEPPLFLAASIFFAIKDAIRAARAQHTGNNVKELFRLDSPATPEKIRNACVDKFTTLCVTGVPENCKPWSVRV

inhibition [1]: 76%
Structure (SMILES): CCCCCCC[C@@H](CC1=C(/C=C/CCC/C=C\CO)C(=O)OC1=O)C1=C(C)C(=O)OC1=O

Structure (SMILES): CCCCCC[C@H](O)[C@@H]1/C(C(=O)O)=C(/C(=O)O)C[C@H]([C@@H](O)[C@H]2CC=CC(=O)O2)CC2=C(C(=O)OC2=O)[C@H]1O
IC50 (RAW264.7 [2]): 1900 nM | growth inhibition (GI) (RAW264.7 [3]): -14.5%

Structure (SMILES): CCCCCC[C@H](O)[C@@H]1/C(C(=O)O)=C(/C(=O)O)C[C@H]([C@@H](O)[C@H](O)CCCC)CC2=C(C(=O)OC2=O)[C@H]1O
inhibition at 10 µM [4]: 67%
